Assay: Solubility profile (free acid in HCl/NaOH solution, supernatants assayed by HPLC)
Type: physicochemical
Experimental: A solubility profile for [1-(4-tert-butylbenzyl)-5-(3-methylphenyl)-1H-indol-3-yl](oxo)acetic acid was generated using the free acid in HCl/NaOH solution (See FIG. 3). Solutions were centrifuged after 24 hours equilibration (2 hours for pH<4 to avoid degradation) and the supernatants were assayed by HPLC.

Structure (SMILES): Cc1cccc(-c2ccc3c(c2)c(C(=O)C(=O)O)cn3Cc2ccc(C(C)(C)C)cc2)c1 [[1-(4-tert-Butylbenzyl)-5-(3-methylphenyl)-1H-indol-3-yl](oxo)acetic acid]
- pH-solubility profile (above pH 4 up to pH 8, free acid in HCl/NaOH, 24 hours equilibration): solubility increases with increasing pH
- pH-solubility profile (above pH 8, precipitation of the sodium salt): solubility decreases
- solubility (pH<4, the stomach condition, 2 hours equilibration): poor solubility
- aqueous solubility (upon ionization in aqueous media): approximately 24 uG/mL

— patent publication US20080188543A1, “PHARMACEUTICAL COMPOSITIONS CONTAINING SUBSTITUTED INDOLE ACID DERIVATIVES AS INHIBITORS OF PLASMINOGEN ACTIVATOR INHIBITOR-1 (PAI-1)” (Wyeth, priority 2007, published 2008)
